In PubChem BioAssay AID248 (DTP/NCI, 2004):
Several values for one entry are separate records, joined by “and”; a condition that tells them apart may be missing. Equal values may be shown once. Toxic doses and inconclusive results are not listed.

System: L1210 leukemia ip in BDF1 mice, survival T/C
Test: NCI In Vivo Anticancer Drug Screen. Data for tumor model L1210 Leukemia (intraperitoneal) in B6D2F1 (BDF1) mice
Settings: endpoint: mean survival time, higher = longer survival
Outline: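 Tumor was transplanted into mice, which were then dosed with test compound or vehicle alone. Survival was recorded for each group, and the treated figure was expressed relative to the control figure.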

[1] = dose: 100.0 mg/kg/injection, schedule: Q01DX009 (ip), vehicle: Klucel (hydroxypropylcellulose) (HPC)
[2] = dose: 200.0 mg/kg/injection, schedule: Q01DX009 (ip), vehicle: Klucel (hydroxypropylcellulose) (HPC)
[3] = dose: 400.0 mg/kg/injection, schedule: Q01DX009 (ip), vehicle: Klucel (hydroxypropylcellulose) (HPC)
[4] = dose: 100.0 mg/kg/injection, schedule: Q01DX001 (ip), vehicle: saline
[5] = dose: 100.0 mg/kg/injection, schedule: Q04DX003 (ip), vehicle: saline
[6] = dose: 200.0 mg/kg/injection, schedule: Q01DX001 (ip), vehicle: saline
[7] = dose: 200.0 mg/kg/injection, schedule: Q04DX003 (ip), vehicle: saline
[8] = dose: 400.0 mg/kg/injection, schedule: Q01DX001 (ip), vehicle: saline
[9] = dose: 400.0 mg/kg/injection, schedule: Q04DX003 (ip), vehicle: saline
[10] = dose: 100.0 mg/kg/injection, schedule: Q01DX001 (ip), vehicle: carboxymethylcellulose (CMC)
[11] = dose: 200.0 mg/kg/injection, schedule: Q01DX001 (ip), vehicle: carboxymethylcellulose (CMC)
[12] = dose: 400.0 mg/kg/injection, schedule: Q01DX001 (ip), vehicle: carboxymethylcellulose (CMC)
[13] = dose: 25.0 mg/kg/injection, schedule: Q01DX009 (ip), vehicle: saline
[14] = dose: 50.0 mg/kg/injection, schedule: Q01DX001 (ip), vehicle: saline
[15] = dose: 50.0 mg/kg/injection, schedule: Q01DX009 (ip), vehicle: saline
[16] = dose: 100.0 mg/kg/injection, schedule: Q01DX009 (ip), vehicle: saline with Tween-80
[17] = dose: 200.0 mg/kg/injection, schedule: Q01DX009 (ip), vehicle: saline with Tween-80
[18] = dose: 400.0 mg/kg/injection, schedule: Q01DX009 (ip), vehicle: saline with Tween-80

In the case of `Nc1nc(N)nc(SCCO)n1`, the T/C [1] was 99 % of control, the T/C [2] was 110 % of control and the T/C [3] was 93 % of control.
For `CC(N)C(=O)O` (stereo not given), the T/C (dose: 25.0 mg/kg/injection, schedule: Q04DX002 (ip), vehicle: saline) was 101 % of control, the T/C (dose: 50.0 mg/kg/injection, schedule: Q04DX002 (ip), vehicle: saline) was 101 % of control and the T/C [4] was 92 % of control. For the same compound, the T/C (dose: 100.0 mg/kg/injection, schedule: Q01DX009 (ip), vehicle: saline) was 104 % of control, the T/C (dose: 100.0 mg/kg/injection, schedule: Q04DX002 (ip), vehicle: saline) was 104 % of control and the T/C [5] was 97 % of control. For the same compound, the T/C [6] was 96 % of control, the T/C (dose: 200.0 mg/kg/injection, schedule: Q01DX009 (ip), vehicle: saline) was 91 % of control and the T/C [7] was 100 % of control. The T/C [8] was 105 % of control, the T/C (dose: 400.0 mg/kg/injection, schedule: Q01DX009 (ip), vehicle: saline) was 98 % of control and the T/C [9] was 100 % of control.
In the case of `CN(C)c1ccc(-c2cccc[n+]2C)cc1`, the T/C (dose: 1.56 mg/kg/injection, schedule: Q01DX009 (ip), vehicle: saline) was 104 % of control, the T/C (dose: 3.13 mg/kg/injection, schedule: Q01DX009 (ip), vehicle: saline) was 103 % of control and the T/C (dose: 6.25 mg/kg/injection, schedule: Q01DX009 (ip), vehicle: saline) was 104 % of control.
For `CCCN(CCC)C(=O)CCN1CC1`, the T/C (dose: 5.0 mg/kg/injection, schedule: Q01DX001 (ip), vehicle: carboxymethylcellulose (CMC)) was 97 % of control, the T/C (dose: 10.0 mg/kg/injection, schedule: Q01DX001 (ip), vehicle: carboxymethylcellulose (CMC)) was 100 % of control and the T/C (dose: 20.0 mg/kg/injection, schedule: Q01DX001 (ip), vehicle: carboxymethylcellulose (CMC)) was 88 % of control. The T/C (dose: 40.0 mg/kg/injection, schedule: Q01DX001 (ip), vehicle: carboxymethylcellulose (CMC)) was 103 % of control.
With `N#Cc1cccc(N)c1` the T/C [4] was 109 % of control, the T/C [5] was 100 % of control and the T/C [7] was 94 % of control. For the same compound, the T/C [8] was 88 % of control and the T/C [9] was 93 % of control.
`CCCCCCCCCCCCCCCCCBr` was tested, and the T/C (dose: 50.0 mg/kg/injection, schedule: Q01DX001 (ip), vehicle: carboxymethylcellulose (CMC)) was 110 % of control, the T/C [10] was 95 % of control and the T/C [11] was 93 % of control. The T/C [12] was 95 % of control.
`O=[N+]([O-])c1ccc2ncccc2c1` was tested, and the T/C (dose: 100.0 mg/kg/injection, schedule: Q04DX003 (ip), vehicle: Klucel (hydroxypropylcellulose) (HPC)) was 106 % of control and the T/C (dose: 200.0 mg/kg/injection, schedule: Q04DX003 (ip), vehicle: Klucel (hydroxypropylcellulose) (HPC)) was 101 % of control.
`COc1ccc(OC(=O)Nc2ccc([N+](=O)[O-])cc2OC)cc1` was tested, and the T/C [1] was 96 % of control, the T/C [2] was 95 % of control and the T/C [3] was 101 % of control.
In the case of `Cc1nc(N)[nH]c(=O)c1/C=C\C(=O)c1ccccc1`, the T/C (dose: 30.0 mg/kg/injection, schedule: Q01DX Z (ip), vehicle: carboxymethylcellulose (CMC)) was 96 % of control, the T/C (dose: 60.0 mg/kg/injection, schedule: Q01DX Z (ip), vehicle: carboxymethylcellulose (CMC)) was 96 % of control and the T/C [10] was 95 % of control. The T/C (dose: 120.0 mg/kg/injection, schedule: Q01DX Z (ip), vehicle: carboxymethylcellulose (CMC)) was 87 % of control, the T/C [11] was 89 % of control and the T/C (dose: 240.0 mg/kg/injection, schedule: Q01DX Z (ip), vehicle: carboxymethylcellulose (CMC)) was 90 % of control. For the same compound, the T/C [12] was 93 % of control.
With `CCNC(=O)NCc1ccc(C)cc1` the T/C (dose: 100.0 mg/kg/injection, schedule: Q04DX002 (ip), vehicle: Klucel (hydroxypropylcellulose) (HPC)) was 102 % of control, the T/C (dose: 200.0 mg/kg/injection, schedule: Q04DX002 (ip), vehicle: Klucel (hydroxypropylcellulose) (HPC)) was 105 % of control and the T/C (dose: 400.0 mg/kg/injection, schedule: Q04DX002 (ip), vehicle: Klucel (hydroxypropylcellulose) (HPC)) was 112 % of control.
In the case of `CN(C)/N=N/c1ncn[nH]1`, the T/C (dose: 3.0 mg/kg/injection, schedule: Q01DX009 (ip), vehicle: saline) was 117 % of control, the T/C (dose: 6.0 mg/kg/injection, schedule: Q01DX009 (ip), vehicle: saline) was 114 % of control and the T/C (dose: 12.5 mg/kg/injection, schedule: Q01DX001 (ip), vehicle: saline) was 104 % of control. For the same compound, the T/C (dose: 12.5 mg/kg/injection, schedule: Q01DX009 (ip), vehicle: saline) was 151 % of control, the T/C (dose: 12.5 mg/kg/injection, schedule: Q04DX003 (ip), vehicle: saline) was 120 % of control and the T/C (dose: 22.0 mg/kg/injection, schedule: Q04DX003 (ip), vehicle: saline) was 123 % of control. For the same compound, the T/C (dose: 25.0 mg/kg/injection, schedule: Q01DX001 (ip), vehicle: saline) was 108 % of control, the T/C [13] was 203 % of control and the T/C [14] was 116 % of control. For the same compound, the T/C [15] was 115 % of control, the T/C [6] was 155 % of control and the T/C [8] was 91 % of control.
`CC(=O)OCC1(C[N+](C)(C)C)CC1` was tested, and the T/C [4] was 103 % of control, the T/C [5] was 100 % of control and the T/C [6] was 97 % of control. The T/C [7] was 100 % of control, the T/C [8] was 105 % of control and the T/C [9] was 100 % of control.
With `CNC(=O)Oc1ccc([N+](C)(C)C)cc1` the T/C (dose: 9.5 mg/kg/injection, schedule: Q01DX001 (ip), vehicle: saline) was 109 % of control and the T/C (dose: 19.0 mg/kg/injection, schedule: Q01DX001 (ip), vehicle: saline) was 100 % of control.
With `COc1ccc(N=NS(=O)O)cc1` the T/C (dose: 100.0 mg/kg/injection, schedule: Q01DX001 (ip), vehicle: Klucel (hydroxypropylcellulose) (HPC)) was 98 % of control, the T/C (dose: 200.0 mg/kg/injection, schedule: Q01DX001 (ip), vehicle: Klucel (hydroxypropylcellulose) (HPC)) was 97 % of control and the T/C (dose: 400.0 mg/kg/injection, schedule: Q01DX001 (ip), vehicle: Klucel (hydroxypropylcellulose) (HPC)) was 95 % of control.
For `Cc1c2ccncc2cc2c3ccccc3n(CC3CO3)c12` (stereo not given), the T/C (dose: 37.5 mg/kg/injection, schedule: Q01DX009 (ip), vehicle: Klucel (hydroxypropylcellulose) (HPC)) was 96 % of control, the T/C (dose: 37.5 mg/kg/injection, schedule: Q04DX003 (ip), vehicle: Klucel (hydroxypropylcellulose) (HPC)) was 104 % of control and the T/C (dose: 75.0 mg/kg/injection, schedule: Q01DX009 (ip), vehicle: Klucel (hydroxypropylcellulose) (HPC)) was 96 % of control. For the same compound, the T/C (dose: 75.0 mg/kg/injection, schedule: Q04DX003 (ip), vehicle: Klucel (hydroxypropylcellulose) (HPC)) was 106 % of control and 119 % of control, the T/C (dose: 150.0 mg/kg/injection, schedule: Q01DX009 (ip), vehicle: Klucel (hydroxypropylcellulose) (HPC)) was 100 % of control and the T/C (dose: 150.0 mg/kg/injection, schedule: Q04DX003 (ip), vehicle: Klucel (hydroxypropylcellulose) (HPC)) was 113 % of control. For the same compound, the T/C (dose: 300.0 mg/kg/injection, schedule: Q01DX009 (ip), vehicle: Klucel (hydroxypropylcellulose) (HPC)) was 102 % of control.
For `O=C(/C=C\c1ccc(Cl)cc1)OCCCCOC(=O)/C=C/c1ccc(Cl)cc1`, the T/C [14] was 96 % of control, the T/C [4] was 93 % of control and the T/C [6] was 93 % of control. The T/C [8] was 93 % of control.
In the case of `O=C(Nc1ccc(Cl)cc1Cl)c1ccc2c(c1)C(=O)OC2=O`, the T/C [16] was 90 % of control, the T/C [17] was 92 % of control and the T/C [18] was 92 % of control.
`COc1cccc(C(=O)NC[n+]2ccccc2)c1` was tested, and the T/C [13] was 92 % of control, the T/C (dose: 25.0 mg/kg/injection, schedule: Q04DX003 (ip), vehicle: saline) was 96 % of control and the T/C [15] was 87 % of control. For the same compound, the T/C (dose: 50.0 mg/kg/injection, schedule: Q04DX003 (ip), vehicle: saline) was 86 % of control and the T/C [5] was 100 % of control.
`O=C(O)[C@@H]1C[C@H]1c1ccccc1` was tested, and the T/C (dose: 25.0 mg/kg/injection, schedule: Q04DX002 (ip), vehicle: saline + alcohol) was 100 % of control, the T/C (dose: 50.0 mg/kg/injection, schedule: Q04DX002 (ip), vehicle: saline + alcohol) was 102 % of control and the T/C [16] was 89 % of control. For the same compound, the T/C (dose: 100.0 mg/kg/injection, schedule: Q04DX002 (ip), vehicle: saline + alcohol) was 109 % of control, the T/C (dose: 100.0 mg/kg/injection, schedule: Q04DX002 (ip), vehicle: saline with Tween-80) was 114 % of control and the T/C [17] was 87 % of control. For the same compound, the T/C [18] was 92 % of control.
